Assay results reported in the NIST ThermoML archive (doi:10.1021/je4009238).

Columns and labels:
[1] = xn = mol fraction of the nth substance listed; details: 101 kPa, Liquid
[2] = refractive index (Na D-line) (dimensionless); xn = mol fraction of the nth substance listed; details: 101 kPa, Liquid

CCn1cc[n+](C)c1.[Cl-] [1-ethyl-3-methylimidazolium chloride] + CN(C)C=O
Details | mass density, [1] [kg/m3] | refractive index, [2] | viscosity, [1] [mPa·s]
288.15 K, x1 = 0.0102 | 958.86 | 1.43565 | 1.023
288.15 K, x1 = 0.0203 | 963.47 | 1.43836 | 1.156
288.15 K, x1 = 0.031 | 968.07 | 1.44091 | 1.188
288.15 K, x1 = 0.0417 | 972.24 | 1.44354 | 1.327
288.15 K, x1 = 0.0524 | 976.38 | 1.44588 | 1.399
288.15 K, x1 = 0.0635 | 980.82 | 1.44822 | 1.535
288.15 K, x1 = 0.0752 | 984.98 | 1.45067 | 1.765
288.15 K, x1 = 0.0867 | 989.33 | 1.45308 | 1.867
288.15 K, x1 = 0.0988 | 993.32 | 1.45542 | 2.123
288.15 K, x1 = 0.1107 | 997.33 | 1.45784 | 2.25
288.15 K, x1 = 0.1232 | 1001.39 | 1.46021 | 2.429
288.15 K, x1 = 0.1361 | 1005.6 | 1.46253 | 2.766
288.15 K, x1 = 0.1489 | 1009.6 | 1.46477 | 3.002
288.15 K, x1 = 0.1626 | 1013.74 | 1.46721 | 3.293
288.15 K, x1 = 0.1759 | 1017.7 | 1.46942 | 3.645
298.15 K, x1 = 0.0102 | 949.52 | 1.43106 | 0.8935
298.15 K, x1 = 0.0203 | 954.18 | 1.43346 | 1.007
298.15 K, x1 = 0.031 | 958.86 | 1.4364 | 1.03
298.15 K, x1 = 0.0417 | 963.18 | 1.43872 | 1.147
298.15 K, x1 = 0.0524 | 967.27 | 1.44144 | 1.198
298.15 K, x1 = 0.0635 | 971.86 | 1.44361 | 1.312
298.15 K, x1 = 0.0752 | 976.05 | 1.44626 | 1.501
298.15 K, x1 = 0.0867 | 980.59 | 1.44855 | 1.577
298.15 K, x1 = 0.0988 | 984.64 | 1.4511 | 1.784
298.15 K, x1 = 0.1107 | 988.67 | 1.45354 | 1.879
298.15 K, x1 = 0.1232 | 992.88 | 1.45597 | 2.014
298.15 K, x1 = 0.1361 | 997.07 | 1.45827 | 2.278
298.15 K, x1 = 0.1489 | 1001.24 | 1.46065 | 2.453
298.15 K, x1 = 0.1626 | 1005.4 | 1.46302 | 2.672
298.15 K, x1 = 0.1759 | 1009.49 | 1.46536 | 2.922
308.15 K, x1 = 0.0102 | 940.08 | 1.42654 | 0.7902
308.15 K, x1 = 0.0203 | 944.84 | 1.42888 | 0.8895
308.15 K, x1 = 0.031 | 949.62 | 1.43189 | 0.9058
308.15 K, x1 = 0.0417 | 954.02 | 1.43416 | 1.004
308.15 K, x1 = 0.0524 | 958.21 | 1.43691 | 1.045
308.15 K, x1 = 0.0635 | 962.87 | 1.43896 | 1.139
308.15 K, x1 = 0.0752 | 967.15 | 1.4419 | 1.297
308.15 K, x1 = 0.0867 | 971.78 | 1.44372 | 1.355
308.15 K, x1 = 0.0988 | 975.93 | 1.44678 | 1.527
308.15 K, x1 = 0.1107 | 980.02 | 1.44907 | 1.625
308.15 K, x1 = 0.1232 | 984.31 | 1.45167 | 1.705
308.15 K, x1 = 0.1361 | 988.59 | 1.45406 | 1.916
308.15 K, x1 = 0.1489 | 992.84 | 1.45621 | 2.051
308.15 K, x1 = 0.1626 | 997.09 | 1.45888 | 2.251
308.15 K, x1 = 0.1759 | 1001.24 | 1.46102 | 2.406
318.15 K, x1 = 0.0102 | 930.6 | 1.42218 | 0.7059
318.15 K, x1 = 0.0203 | 935.4 | 1.4245 | 0.794
318.15 K, x1 = 0.031 | 940.37 | 1.4275 | 0.8045
318.15 K, x1 = 0.0417 | 944.85 | 1.42977 | 0.8901
318.15 K, x1 = 0.0524 | 949.12 | 1.43252 | 0.923
318.15 K, x1 = 0.0635 | 953.87 | 1.43477 | 1.002
318.15 K, x1 = 0.0752 | 958.24 | 1.43765 | 1.136
318.15 K, x1 = 0.0867 | 962.96 | 1.43964 | 1.181
318.15 K, x1 = 0.0988 | 967.2 | 1.44253 | 1.327
318.15 K, x1 = 0.1107 | 971.44 | 1.445 | 1.404
318.15 K, x1 = 0.1232 | 975.73 | 1.44746 | 1.468
318.15 K, x1 = 0.1361 | 980.13 | 1.44986 | 1.64
318.15 K, x1 = 0.1489 | 984.44 | 1.45192 | 1.748
318.15 K, x1 = 0.1626 | 988.83 | 1.45477 | 1.905
318.15 K, x1 = 0.1759 | 993.01 | 1.45679 | 2.02
